The values that follow come from US20020164266A1, “Microbicidal mixtures” (priority 2001, published 2002).

Assay type in all cases: cell-based
For one assay, the system named is Pseudomonas fluorescens. The assay can be described thus: Synergism (BNPD/MIT), MIC values for Pseudomonas fluorescens. Particulars: read-out: MIC values for Pseudomonas fluorescens. The source says: (§1) The mixtures according to the invention have synergistic activity. The observed synergism can be determined by the following mathematical equation (see F. C. Kull, P. C. Elisman, H. D. Sylwestrowicz and P. K. Mayer, Appl. Microbiol. 9, 538 (1961): [formula]
(§2) Qa=the amount of component A in the active compound mixture which achieves the desired effect, i.e. no microbial growth.
(§3) QA=the amount of component A which, when used on its own, suppresses the growth of the microorganisms.
(§4) Qb=the amount of component B in the active compound mixture which suppresses the growth of the micoorganisms.
(§5) QB=the amount of component B which, when used on its own, suppresses the growth of the microorganisms.
(§6) A synergistic index of SI<1 indicates a synergistic effect for the mixture in question. […] All parts and percentages are by weight unless otherwise indicated.
Test pathogen: Pseudomonas fluorescens
(§7) In brackets=mixing ratios of the pure active compounds

The next assay concerns Pseudomonas aeruginosa. The assay can be described thus: Synergism (BNPD/MIT), MIC values for Pseudomonas aeruginosa. Particulars: read-out: MIC values for Pseudomonas aeruginosa.
Text: as §1, §2, §3, §4, §5, §6
Test pathogen: Pseudomonas aeruginosa
as §7

A further assay concerns Bacillus subtilis. The assay can be described thus: Synergism (BNPD/MIT), MIC values for Bacillus subtilis. Particulars: read-out: MIC values for Bacillus subtilis.
Text: as §1, §2, §3, §4, §5, §6
Test pathogen: Bacillus subtilis
as §7

As usually defined, the MIC is the lowest concentration found to suppress growth. In the case of `Cn1sccc1=O` [MIT, 2-methyl-2H-isothiazol-3-one], the MIC in the assay with Pseudomonas fluorescens worked out at 10 mg/L; in the assay with Pseudomonas aeruginosa, 10 mg/L; with Bacillus subtilis, 25 mg/L.

As to `O=[N+]([O-])C(Br)(CO)CO` [BNPD, 2-bromo-2-nitropropanediol], the MIC with Pseudomonas fluorescens, in the assay with Pseudomonas aeruginosa and with Bacillus subtilis was 10 mg/L throughout.
